This note sets out measurements from patent US10954252B1, “Inhibitors of human immunodeficiency virus replication” (ViiV HEALTHCARE UK (NO.5) LIMITED, priority 2017, dated 2021).

Usually CC50 stands for the concentration that lowers cell viability or growth by half. A high value points to better tolerance by the cells. As a reminder, the EC50 is the concentration that produces a half-maximal response.

Common to all, as to type: cell-based
In one data set the test system is uninfected MT2 cells. Briefly: Compound cytotoxicity, XTT-based colorimetric assay. The method, boiled down:
(§1)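 CC50 from uninfected MT2 cells run under the antiviral-assay protocol without virus. Viability read on day 4 by XTT colorimetric assay.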
(In general: Tetrazolium assays rely on reduction of a dye to a coloured formazan, in cell work by metabolically active cells.)

Data set [1] concerns recombinant NL4-3 virus (nef section replaced with Renilla luciferase gene) in MT-2 cells. Put plainly: HIV cell culture assay (antiviral activity, luciferase readout). The note with it: MT-2 cells infected for 4-5 days with recombinant NL4-3 luciferase virus. The method, boiled down:
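NL4-3 reporter virus carrying Renilla luciferase in place of part of nef, produced in 293T cells, was used to infect MT-2 cells for 4-5 days with serial compound dilutions. Luciferase activity was read with a live-cell substrate; EC50 derived from the median effect equation.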

Data set [2] in a line: Compound cytotoxicity, XTT-based colorimetric assay. The note with it: human, uninfected MT2 cells. Summed up:
as §1

In turn, `O=C(Cc1c[nH]c2ccc(F)cc12)NC(Cc1cc(F)cc(F)c1)c1nc2cn[nH]c2cc1-c1ccc2scnc2c1` (single isomer, unassigned) [Example 3.6, N-(1-(6-(benzo[d]thiazol-5-yl)-1H-pyrazolo[4,3-b]pyridin-5-yl)-2-(3,5-difluorophenyl)ethyl)-2-(5-fluoro-1H-indol-3-yl)acetamide] gave a 50% cytotoxic concentration (CC50) with uninfected MT2 cells (Table 1, day 4, XTT) of 32600 nM. The EC50 in data set [1] (Table 1) is 230 nM.
Compound `COc1c(F)ccc2c(=O)n(-c3ccc(Cl)c4c(NS(C)(=O)=O)nn(C)c34)c([C@H](Cc3cc(F)cc(F)c3)NC(=O)Cn3nc(C(F)F)c4c3C(F)(F)[C@@H]3C[C@H]43)nc12` (single isomer, unassigned) [Example 110] registered a CC50 in the data set on uninfected MT2 cells (Table 1a, day 4, XTT) above 1000 nM. Also, in data set [1] (Table 1a), the 50% effective concentration (EC50) turned out to be 0.072 nM.
The matching figures for `COc1ccc2c(=O)n(-c3ccc(Cl)c4c(NS(C)(=O)=O)nn(C)c34)c([C@H](Cc3cc(F)cc(F)c3)NC(=O)Cn3ccc(C4CC4)n3)nc2n1` (mixture of isomers) [Example 58.2, N-[(1S)-1-[3-(4-chloro-3-methanesulfonamido-1-methyl-1H-indazol-7-yl)-7-methoxy-4-oxo-3H,4H-pyrido[2,3-d]pyrimidin-2-yl]-2-(3,5-difluorophenyl)ethyl]-2-(3-cyclopropyl-1H-pyrazol-1-yl)acetamide]: above 1000 nM and 0.168 nM.
`Cc1nc2nc(C(Cc3cc(F)cc(F)c3)NC(=O)Cn3nc(C(F)F)c4c3CCC4)c(-c3ccc(Cl)c4c(NS(C)(=O)=O)nn(C)c34)cc2s1` (single isomer, unassigned) [Example 2.4, N-(1-(6-(4-chloro-1-methyl-3-(methylsulfonamido)-1H-indazol-7-yl)-2-methylthiazolo[4,5-b]pyridin-5-yl)-2-(3,5-difluorophenyl)ethyl)-2-(3-(difluoromethyl)-5,6-dihydrocyclopenta[c]pyrazol-1(4H)-yl)acetamide] showed a CC50 in the data set with uninfected MT2 cells (Table 1, day 4, XTT) above 10000 nM. Besides, in data set [1] (Table 1), the EC50 is 690 nM.
`Cc1c(F)ccc2c(=O)n(-c3ccc(Cl)c4c(NS(C)(=O)=O)nn(C)c34)c([C@H](Cc3cc(F)cc(F)c3)NC(=O)Cn3nc(C(F)F)c4c3C(F)(F)[C@@H]3C[C@H]43)nc12` (single isomer, unassigned) [Example 108] had a CC50 with uninfected MT2 cells (Table 1a, day 4, XTT) above 1000 nM. Besides, the EC50 in data set [1] (Table 1a) was 0.85 nM.
Compound `Cn1nc(NS(C)(=O)=O)c2c(Cl)ccc(-c3cc4cc[nH]c4nc3[C@H](Cc3cc(F)cc(F)c3)NC(=O)Cn3nc(C(F)F)c4c3C(F)(F)[C@@H]3C[C@H]43)c21` (single isomer, unassigned) [Example 84] showed a CC50 at 4 days in data set [2] (Table 1a, day 4, XTT) above 10000 nM. In data set [1] (Renilla, NL43, Table 1a), the EC50 is 0.94 nM.
In data set [2] (Table 1, day 4, XTT), `O=C(Cn1nc(C(F)F)c2c1C(F)(F)[C@@H]1C[C@H]21)NC(Cc1cc(F)cc(F)c1)c1ncc2nc[nH]c2c1-c1ccc2scnc2c1` (single isomer, unassigned) [Example 7.1] returned a CC50 at 4 days of 16200 nM. Also, the EC50 in data set [1] (Table 1) came to 140 nM.
`Nc1c(-c2ccc3c(c2)C(=O)NC3)c([C@H](Cc2cc(F)cc(F)c2)NC(=O)Cn2nc(C(F)F)c3c2C(F)(F)[C@@H]2C[C@H]32)nc2ncnn12` [Example 62, N—((S)-1-(7-amino-6-(3-oxoisoindolin-5-yl)-[1,2,4]triazolo[1,5-a]pyrimidin-5-yl)-2-(3,5-difluorophenyl)ethyl)-2-((3bS,4aR)-3-(difluoromethyl)-5,5-difluoro-3b,4,4a,5-tetrahydro-1H-cyclopropa[3,4]cyclopenta[1,2-c]pyrazol-1-yl)acetamide]: the CC50 at 4 days in data set [2] (Table 1a, day 4, XTT) was above 10000 nM. The EC50 in data set [1] (Renilla, NL43, Table 1a) came out at 86.3 nM.
The matching figures for `COc1ccc2c(=O)n(-c3ccc(Cl)c4c(NS(=O)(=O)C5CC5)nn(CC(F)F)c34)c([C@H](Cc3cc(F)cc(F)c3)NC(=O)Cn3ccc(C4CC4)n3)nc2n1` (single isomer, unassigned) [Example 57.2]: above 1000 nM and 0.33 nM.
As to `O=C(Cn1nc(C(F)F)c2c1C(F)(F)[C@@H]1C[C@H]21)N[C@@H](Cc1cc(F)cc(F)c1)c1nc2ncccc2c(=O)n1-c1ccc(S(=O)(=O)N2CCOCC2)cc1` [Example 10.38], the CC50 at 4 days in data set [2] (Table 1, day 4, XTT) is above 10000 nM. Further, the EC50 in data set [1] (Renilla, NL43, Table 1) came to 0.204 nM.
For the compound `COc1ccc2c(=O)n(-c3ccc(Cl)c4c(NS(C)(=O)=O)nn(C)c34)c([C@H](Cc3cc(F)cc(F)c3)NC(=O)Cn3ccc(C4CC4)n3)nc2c1` (single isomer, unassigned) [Example 78], the 50% cytotoxic concentration (CC50) at 4 days in data set [2] (Table 1a, day 4, XTT) was above 1000 nM. In addition, the concentration for a half-maximal effect (EC50) in data set [1] (Renilla, NL43, Table 1a) is 0.478 nM.
In the same order, the values of `Cn1ccc2nc(C(Cc3cc(F)cc(F)c3)NC(=O)Cn3nc(C(F)F)c4c3C(F)(F)[C@@H]3C[C@H]43)c(-c3ccc(Cl)c4c(NS(C)(=O)=O)nn(C)c34)cc21` (single isomer, unassigned) [Example 117] are above 10000 nM and 0.243 nM.
In the same order, the values of `Cc1cc(F)c2c(=O)n(-c3ccc(Cl)c4c(NS(C)(=O)=O)nn(C)c34)c(C(Cc3cc(F)cc(F)c3)NC(=O)Cn3nc(C(F)F)c4c3C(F)(F)[C@@H]3C[C@H]43)nc2c1` (mixture of isomers) [Example 171, N—((S)-1-(3-(4-chloro-1-methyl-3-(methylsulfonamido)-1H-indazol-7-yl)-5-fluoro-7-methyl-4-oxo-3,4-dihydroquinazolin-2-yl)-2-(3,5-difluorophenyl)ethyl)-2-((3bS,4aR)-3-(difluoromethyl)-5,5-difluoro-3b,4,4a,5-tetrahydro-1H-cyclopropa[3,4]cyclopenta[1,2-c]pyrazol-1-yl)acetamide] are above 1000 nM and 3.96 nM.
On to `O=C(Cn1nc(C(F)F)c2c1C(F)(F)[C@@H]1C[C@H]21)N[C@@H](Cc1cc(F)cc(F)c1)c1nc2cn[nH]c2cc1-c1ccc2c(c1)C(=O)NC2` [Example 10.14, 2-((3bS,4aR)-3-(difluoromethyl)-5,5-difluoro-3b,4,4a,5-tetrahydro-1H-cyclopropa[3,4]cyclopenta[1,2-c]pyrazol-1-yl)-N—((S)-2-(3,5-difluorophenyl)-1-(6-(3-oxoisoindolin-5-yl)-1H-pyrazolo[4,3-b]pyridin-5-yl)ethyl)acetamide], for which, in data set [2] (Table 1, day 4, XTT), the CC50 at 4 days was above 10000 nM. Moreover, in data set [1] (Renilla, NL43, Table 1), the EC50 came out at 2.5 nM.
Regarding `COc1ccc2c(=O)n(-c3ccc(Cl)c4c(NS(C)(=O)=O)nn(CC(F)F)c34)c([C@H](Cc3cc(F)cc(F)c3)NC(=O)Cn3nc(C(F)F)c4c3C(F)(F)[C@@H]3C[C@H]43)nc2n1` (mixture of isomers) [Example 54.2, N-[(1S)-1-{3-[4-chloro-1-(2,2-difluoroethyl)-3-methanesulfonamido-1H-indazol-7-yl]-7-methoxy-4-oxo-3H,4H-pyrido[2,3-d]pyrimidin-2-yl}-2-(3,5-difluorophenyl)ethyl]-2-[(2S,4R)-9-(difluoromethyl)-5,5-difluoro-7,8-diazatricyclo[4.3.0.0^2,4]nona-1(6),8-dien-7-yl]acetamide], in data set [2] (Table 1a, day 4, XTT), the half-maximal cytotoxic concentration (CC50) at 4 days is above 1000 nM. The half-maximal effective concentration (EC50) in data set [1] (Renilla, NL43, Table 1a) came out at 0.026 nM.
For `CN1CCN(S(=O)(=O)c2ccc(-c3cc4[nH]ncc4nc3[C@H](Cc3cc(F)cc(F)c3)NC(=O)Cn3nc(C(F)F)c4c3C(F)(F)[C@@H]3C[C@H]43)cc2)CC1` [Example 28, 2-((3bS,4aR)-3-(difluoromethyl)-5,5-difluoro-3b,4,4a,5-tetrahydro-1H-cyclopropa[3,4]cyclopenta[1,2-c]pyrazol-1-yl)-N—((S)-2-(3,5-difluorophenyl)-1-(6-(4-((4-methylpiperazin-1-yl)sulfonyl)phenyl)-1H-pyrazolo[4,3-b]pyridin-5-yl)ethyl)acetamide], the CC50 at 4 days in data set [2] (Table 1a, day 4, XTT) was above 10000 nM. In addition, the 50% effective concentration (EC50) in data set [1] (Renilla, NL43, Table 1a) came to 19.9 nM.
For the compound `Cn1nc(NS(C)(=O)=O)c2c(Cl)ccc(-n3c(C(Cc4cc(F)cc(F)c4)NC(=O)Cn4nc(C(F)F)c5c4C(F)(F)[C@@H]4C[C@H]54)nc4cccc(Cl)c4c3=O)c21` (mixture of isomers) [Example 22.1, N—((S)-1-(5-chloro-3-(4-chloro-1-methyl-3-(methylsulfonamido)-1H-indazol-7-yl)-4-oxo-3,4-dihydroquinazolin-2-yl)-2-(3,5-difluorophenyl)ethyl)-2-((3bS,4aR)-3-(difluoromethyl)-5,5-difluoro-3b,4,4a,5-tetrahydro-1H-cyclopropa[3,4]cyclopenta[1,2-c]pyrazol-1-yl)acetamide], in data set [2] (Table 1, day 4, XTT), the CC50 at 4 days was above 1000 nM. For the same compound, the EC50 in data set [1] (Renilla, NL43, Table 1) came to 31600 nM.
In turn, `O=C(Cn1nc(C(F)F)c2c1C(F)(F)[C@@H]1C[C@H]21)N[C@H](Cc1cc(F)cc(F)c1)c1nc2cc[nH]c2cc1-c1ccc(S(=O)(=O)N2CCOCC2)cc1` [Example 66, 2-((3bS,4aR)-3-(difluoromethyl)-5,5-difluoro-3b,4,4a,5-tetrahydro-1H-cyclopropa[3,4]cyclopenta[1,2-c]pyrazol-1-yl)-N—((R)-2-(3,5-difluorophenyl)-1-(6-(4-(morpholinosulfonyl)phenyl)-1H-pyrrolo[3,2-b]pyridin-5-yl)ethyl)acetamide] had a CC50 at 4 days in data set [2] (Table 1a, day 4, XTT) of 10000 nM. Further, in data set [1] (Renilla, NL43, Table 1a), the EC50 was 1540 nM.
`NC(=O)c1cc(-c2cc3[nH]ncc3nc2[C@H](Cc2cc(F)cc(F)c2)NC(=O)Cn2nc(C(F)F)c3c2C(F)(F)[C@@H]2C[C@H]32)ccc1Cl` [Example 10.3, 2-Chloro-5-(5-((S)-1-(2-((3bS,4aR)-3-(difluoromethyl)-5,5-difluoro-3b,4,4a,5-tetrahydro-1H-cyclopropa[3,4]cyclopenta[1,2-c]pyrazol-1-yl)acetamido)-2-(3,5-difluorophenyl)ethyl)-1H-pyrazolo[4,3-b]pyridin-6-yl)benzamide] had a CC50 at 4 days in data set [2] (Table 1, day 4, XTT) above 10000 nM. Further, in data set [1] (Renilla, NL43, Table 1), the EC50 came out at 84 nM.
In data set [2] (Table 1a, day 4, XTT), `Cn1nc(NS(C)(=O)=O)c2c(Cl)ccc(-c3cc4cc[nH]c4nc3C(Cc3cc(F)cc(F)c3)NC(=O)Cn3nc(C(F)F)c4c3C(F)(F)[C@@H]3C[C@H]43)c21` (single isomer, unassigned) [Example 83] came in with a CC50 at 4 days above 10000 nM. Further, the EC50 in data set [1] (Table 1a) was 1.02 nM.
